Experimental findings from ChEMBL document CHEMBL5356945, “Discovery of PFI-6, a small-molecule chemical probe for the YEATS domain of MLLT1 and MLLT3” (Bioorg Med Chem Lett, 2024) are described below.

For data set [1], the target named is T1, Protein AF-9 (Homo sapiens, UniProt P42568).
T1 sequence (P42568 whole entry): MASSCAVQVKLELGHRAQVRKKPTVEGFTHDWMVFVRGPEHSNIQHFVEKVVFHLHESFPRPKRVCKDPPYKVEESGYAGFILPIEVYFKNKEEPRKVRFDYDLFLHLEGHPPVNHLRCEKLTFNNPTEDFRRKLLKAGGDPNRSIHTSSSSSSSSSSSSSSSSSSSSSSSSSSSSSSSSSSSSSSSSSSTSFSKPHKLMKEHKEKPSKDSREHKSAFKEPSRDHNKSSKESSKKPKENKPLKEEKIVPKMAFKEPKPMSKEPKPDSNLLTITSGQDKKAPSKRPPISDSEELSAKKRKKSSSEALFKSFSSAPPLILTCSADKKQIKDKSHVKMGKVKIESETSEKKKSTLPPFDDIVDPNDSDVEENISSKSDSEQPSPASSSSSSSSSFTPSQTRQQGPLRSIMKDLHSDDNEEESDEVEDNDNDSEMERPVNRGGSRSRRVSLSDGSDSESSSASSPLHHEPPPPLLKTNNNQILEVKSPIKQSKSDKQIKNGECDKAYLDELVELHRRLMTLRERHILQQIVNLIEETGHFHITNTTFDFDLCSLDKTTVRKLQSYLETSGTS
The data set is described as follows: Inhibition of MLLT3 YD domain (unknown origin) assessed as disruption of histone peptide binding using histone peptide as substrate by HTRF assay.

In data set [2] the target is T2, Protein ENL (Homo sapiens, UniProt Q03111).
T2 sequence (Q03111 whole entry): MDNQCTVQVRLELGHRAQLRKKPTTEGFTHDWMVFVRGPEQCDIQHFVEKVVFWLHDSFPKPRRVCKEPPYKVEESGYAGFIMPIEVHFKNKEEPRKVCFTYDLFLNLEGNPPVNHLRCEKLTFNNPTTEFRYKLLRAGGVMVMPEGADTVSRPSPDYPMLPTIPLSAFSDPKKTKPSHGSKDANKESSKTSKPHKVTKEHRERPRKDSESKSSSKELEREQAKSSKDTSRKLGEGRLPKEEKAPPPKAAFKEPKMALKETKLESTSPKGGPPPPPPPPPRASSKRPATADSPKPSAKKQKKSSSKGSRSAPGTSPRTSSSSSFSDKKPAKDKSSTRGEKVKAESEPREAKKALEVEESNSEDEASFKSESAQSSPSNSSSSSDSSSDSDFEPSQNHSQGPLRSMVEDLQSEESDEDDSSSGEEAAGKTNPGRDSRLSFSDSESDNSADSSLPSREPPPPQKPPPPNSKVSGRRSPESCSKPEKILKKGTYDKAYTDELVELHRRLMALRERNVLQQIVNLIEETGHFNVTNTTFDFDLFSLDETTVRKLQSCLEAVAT
Briefly: Inhibition of MLLT1 YD domain (unknown origin) assessed as disruption of histone peptide binding using histone peptide as substrate by HTRF assay. On the technique in general: In TR-FRET formats the signal depends on donor and acceptor labels being close together.

For data set [3], the target named is T3, YEATS domain-containing protein 2 (Homo sapiens, UniProt Q9ULM3).
T3 sequence (Q9ULM3 whole entry): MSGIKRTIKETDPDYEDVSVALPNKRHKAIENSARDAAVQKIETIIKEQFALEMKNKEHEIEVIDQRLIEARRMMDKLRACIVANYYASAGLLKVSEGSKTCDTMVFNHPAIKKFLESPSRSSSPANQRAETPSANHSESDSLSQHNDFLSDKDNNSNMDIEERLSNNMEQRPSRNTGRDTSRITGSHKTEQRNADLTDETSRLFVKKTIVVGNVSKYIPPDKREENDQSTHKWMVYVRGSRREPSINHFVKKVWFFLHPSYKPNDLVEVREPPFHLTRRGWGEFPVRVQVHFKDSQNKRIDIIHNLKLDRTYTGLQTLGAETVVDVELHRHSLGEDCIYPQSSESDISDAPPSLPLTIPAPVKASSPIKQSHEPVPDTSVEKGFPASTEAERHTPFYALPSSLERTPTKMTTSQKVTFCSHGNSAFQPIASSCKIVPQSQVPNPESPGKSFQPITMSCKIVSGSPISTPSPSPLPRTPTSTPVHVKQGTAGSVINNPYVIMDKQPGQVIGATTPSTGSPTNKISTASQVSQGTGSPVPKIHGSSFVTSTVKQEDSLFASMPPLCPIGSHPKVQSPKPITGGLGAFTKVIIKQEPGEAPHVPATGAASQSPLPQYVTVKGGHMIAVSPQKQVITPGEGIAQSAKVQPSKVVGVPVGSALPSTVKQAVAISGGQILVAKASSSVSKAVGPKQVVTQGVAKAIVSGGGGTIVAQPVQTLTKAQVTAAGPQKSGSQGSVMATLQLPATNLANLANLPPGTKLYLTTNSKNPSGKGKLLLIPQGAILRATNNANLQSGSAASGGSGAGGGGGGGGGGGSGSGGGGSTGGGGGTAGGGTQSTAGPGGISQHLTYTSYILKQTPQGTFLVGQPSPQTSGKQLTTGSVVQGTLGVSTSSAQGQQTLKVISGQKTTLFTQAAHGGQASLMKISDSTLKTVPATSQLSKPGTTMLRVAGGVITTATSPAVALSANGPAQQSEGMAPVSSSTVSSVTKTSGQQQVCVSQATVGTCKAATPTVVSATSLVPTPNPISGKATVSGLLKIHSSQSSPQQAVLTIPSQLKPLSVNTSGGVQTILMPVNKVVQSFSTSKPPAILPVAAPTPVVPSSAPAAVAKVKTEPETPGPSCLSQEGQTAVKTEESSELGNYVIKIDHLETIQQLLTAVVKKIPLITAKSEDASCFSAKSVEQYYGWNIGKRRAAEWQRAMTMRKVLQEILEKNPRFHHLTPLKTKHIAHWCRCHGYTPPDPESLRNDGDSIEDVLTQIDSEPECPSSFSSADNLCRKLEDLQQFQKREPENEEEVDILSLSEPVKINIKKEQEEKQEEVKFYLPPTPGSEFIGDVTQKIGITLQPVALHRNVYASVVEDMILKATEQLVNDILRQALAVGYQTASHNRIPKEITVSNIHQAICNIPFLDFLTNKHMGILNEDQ
Briefly: Inhibition of YEATS2 YD domain (unknown origin) assessed as disruption of histone peptide binding using histone peptide as substrate by HTRF assay.

Data set [4] deals with T1, Protein AF-9. Briefly: Binding affinity to MLLT3 in human HEK293 cells by NanoBRET assay. It counts as cell-based.
For data set [5], the target named is T4, YEATS domain-containing protein 4 (Homo sapiens, UniProt O95619). The data set is described as follows: Inhibition of YEATS4 YD domain (unknown origin) assessed as disruption of histone peptide binding using histone peptide as substrate by HTRF assay.
The target in data set [6] is T2, Protein ENL. Briefly: Inhibition of His-tagged MLLT1 YD domain (unknown origin) assessed as disruption of protein binding to histone peptide using biotinylated histone peptide as substrate by AlphaScreen assay. (In general: Alpha assays give light when donor and acceptor beads are brought close together.)
Data set [7] concerns the target T5, Protein ENL (Homo sapiens) (UniProt Q03111).
T5 sequence (whole entry): T2 sequence (Q03111 whole entry)
Briefly: Inhibition of His-tagged MLLT1 YD domain (unknown origin) assessed as disruption of protein binding to histone peptide using biotinylated histone peptide as substrate at 100 uM by AlphaScreen assay.

The target of data set [8] is T4, YEATS domain-containing protein 4. Briefly: Binding affinity to YEATS4 YD domain (unknown origin) assessed as change in melting temperature by thermal shift assay.
Data set [9] can be described thus: Metabolic stability in human hepatocytes assessed as apparent intrinsic clearance measured per million cells. Type of data set: ADME, cell-based, Hepatocyte.
A short description of data set [10]: Kinetic solubility of compound at pH 7.4. Type of data set: physicochemical. As to conditions: buffer, read-out: Kinetic_solubility.
A short description of data set [11]: Cytotoxicity against human THLE cells assessed as decrease in cellular ATP by CellTiter-Glo assay. Type of data set: toxicity, cell-based.
Data set [12] addresses T5, Protein ENL (Homo sapiens). The data set is described as follows: Binding affinity to MLLT1 YD domain (unknown origin) assessed as change in melting temperature by thermal shift assay.
A short description of data set [13]: Lipophilicity, logD of the compound by shake flask method. Type of data set: physicochemical. As to conditions: octanol/water.
For data set [14], the target named is T6, YEATS domain-containing protein 2 (Homo sapiens) (UniProt Q9ULM3).
T6 sequence (whole entry): T3 sequence (Q9ULM3 whole entry)
The data set is described as follows: Binding affinity to YEATS2 YD domain (unknown origin) assessed as change in melting temperature by thermal shift assay.

For data set [15], the target named is T7, Protein AF-9 (Homo sapiens) (UniProt P42568).
T7 sequence (whole entry): T1 sequence (P42568 whole entry)
Description: Binding affinity to MLLT3 YD domain (unknown origin) assessed as change in melting temperature by thermal shift assay

In data set [16] the target is Voltage-gated inwardly rectifying potassium channel KCNH2 (Homo sapiens, UniProt Q12809). Briefly: Inhibition of human ERG assessed as inhibition constant by patch-clamp assay. Type of data set: toxicity. A general note: The patch-clamp technique gives a direct electrical read-out from membranes.
The nature of data set [17]: Passive apparent permeability in dog MDCK cells. Type of data set: ADME, cell-based, Canis lupus familiaris.

Molecules are shown by their SMILES. In brackets after ≈: the same amount, converted by molar mass.

T4 sequence (O95619 whole entry, the tested form may be a part): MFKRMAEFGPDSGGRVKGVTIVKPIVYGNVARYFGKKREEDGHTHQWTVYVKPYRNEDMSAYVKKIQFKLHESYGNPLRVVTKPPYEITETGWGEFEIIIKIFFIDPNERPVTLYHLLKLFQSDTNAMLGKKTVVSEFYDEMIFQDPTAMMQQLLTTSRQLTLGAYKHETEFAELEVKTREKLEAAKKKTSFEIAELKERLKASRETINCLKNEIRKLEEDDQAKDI
Chain of Voltage-gated inwardly rectifying potassium channel KCNH2 (Q12809 whole entry): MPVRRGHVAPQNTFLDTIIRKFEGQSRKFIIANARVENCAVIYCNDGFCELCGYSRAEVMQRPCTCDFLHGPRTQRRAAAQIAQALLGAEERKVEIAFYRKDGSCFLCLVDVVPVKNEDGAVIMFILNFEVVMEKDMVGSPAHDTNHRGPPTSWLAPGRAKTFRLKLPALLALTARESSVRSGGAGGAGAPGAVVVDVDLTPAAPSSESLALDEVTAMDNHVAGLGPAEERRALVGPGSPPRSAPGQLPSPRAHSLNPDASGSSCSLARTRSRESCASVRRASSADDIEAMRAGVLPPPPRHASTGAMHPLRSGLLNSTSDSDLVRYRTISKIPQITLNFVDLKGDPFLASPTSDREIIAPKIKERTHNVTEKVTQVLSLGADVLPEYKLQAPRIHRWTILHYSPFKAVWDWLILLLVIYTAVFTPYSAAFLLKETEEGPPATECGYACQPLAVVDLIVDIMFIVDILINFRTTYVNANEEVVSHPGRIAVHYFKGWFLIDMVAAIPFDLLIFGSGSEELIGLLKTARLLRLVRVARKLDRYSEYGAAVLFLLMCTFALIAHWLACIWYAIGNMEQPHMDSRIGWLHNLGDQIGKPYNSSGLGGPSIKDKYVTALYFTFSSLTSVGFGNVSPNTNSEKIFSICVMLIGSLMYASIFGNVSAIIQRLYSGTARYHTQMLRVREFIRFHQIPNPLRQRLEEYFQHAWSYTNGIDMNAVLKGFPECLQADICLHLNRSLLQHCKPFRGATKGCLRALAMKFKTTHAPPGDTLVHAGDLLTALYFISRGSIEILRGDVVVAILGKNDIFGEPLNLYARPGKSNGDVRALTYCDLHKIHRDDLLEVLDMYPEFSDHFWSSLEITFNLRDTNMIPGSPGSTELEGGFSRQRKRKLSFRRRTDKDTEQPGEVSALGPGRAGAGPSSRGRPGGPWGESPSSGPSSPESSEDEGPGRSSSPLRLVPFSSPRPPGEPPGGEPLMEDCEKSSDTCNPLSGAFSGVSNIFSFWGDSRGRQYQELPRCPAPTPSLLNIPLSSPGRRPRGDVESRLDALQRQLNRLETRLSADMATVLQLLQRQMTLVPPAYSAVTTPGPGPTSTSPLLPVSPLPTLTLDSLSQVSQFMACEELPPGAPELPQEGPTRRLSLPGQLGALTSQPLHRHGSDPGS

For `CN(C)C(=O)c1ccc(-c2cc(C(=O)N(C)C3CCCC3)no2)cc1O`, the half-inhibitory concentration (IC50) in data set [1], in [2], in [3], in data set [4] and in [5] was > 30 µM throughout.

Take `O=C(NC1CCCC1)c1cc2cc(F)ccc2[nH]1`: in [6], the IC50 is 5.64 µM.

Turning to `CN(C)C(=O)c1ccc(-c2cc(C(=O)NC3CCCC3)no2)cc1O`, the IC50 was 0.12 µM in [1], 0.16 µM in data set [2], > 30 µM in data set [3] and > 30 µM in data set [5].

For `C/C=C/C(=O)NC1CCCC1`, the inhibition in [7] was 55%.

In the case of `O=C(NC1CCCC1)c1cc(-c2cccc(O)c2)on1`, the half-maximal inhibitory concentration (IC50) in [1] is 0.63 µM; in data set [2], 0.93 µM; in [3] it was > 30 µM; in data set [5], > 30 µM; in [6] it was 1.1 µM.

On to `O=C(NC1CCCC1)c1cc(-c2ccc(Cl)c(O)c2)on1`, for which the IC50 in data set [1] was 0.5 µM; in [2] it was 0.75 µM; in data set [3] it was > 30 µM; in data set [5], > 5.8 µM.

`CC(C)NC(=O)c1cc(-c2cccc(O)c2)on1`: the IC50 in data set [6] turned out to be 9.13 µM.

Turning to `O=C(NC1CCCC1)c1cc(-c2ccc(O)cc2)on1`, in data set [6], the IC50 is 6.9 µM.

The compound `C[C@H]1CCCN1Cc1nc2cc(NC(=O)c3ccc4c(cnn4C)c3)ccc2[nH]1` yielded an IC50 in [4] of 0.6 µM.

As to `O=C(NC1CCCC1)c1cnn(-c2cccc(O)c2)c1`, the IC50 in [1] was 2.4 µM; in data set [2], 3.4 µM; in [3], > 30 µM; in data set [5], > 30 µM.

For `O=C(NC1CCCC1)c1cn(-c2cccc(O)c2)cn1`, the concentration for half-maximal inhibition (IC50) is 0.5 µM in data set [1], 0.97 µM in data set [2], > 26 µM in data set [3] and > 30 µM in data set [5].

`O=C(NC1CCCC1)c1cc(-c2cc(O)c3cccnc3c2)on1`: the IC50 in data set [1] is 0.2 µM; in [2], 0.26 µM; in data set [3], > 30 µM; in data set [5] it was > 30 µM.

Regarding `O=C(NC1CCCC1)c1cc(-c2cccc(O)c2Cl)on1`, the IC50 in [1], in [2], in data set [3] and in [5] was > 30 µM in each case.

As for `O=C(NCC1CC1)c1cc(-c2cccc(O)c2)on1`, the IC50 in data set [6] was determined as 21.9 µM.

As for `O=C(NC1CCCC1)c1cc(-c2cccc(O)c2)n[nH]1`, the IC50 in data set [1] is 3.4 µM; in data set [2] it was 2.5 µM; in data set [3], > 30 µM; in data set [5] it was > 30 µM.

Take `CN(C)C(=O)c1ccc(-c2cc(C(=O)N[C@@H]3CCc4ccccc43)no2)cc1O`: the ΔTm is -0.02 °C in [8], 3.61 °C in data set [12], 0 °C in data set [14] and 5.13 °C in data set [15]. The “CLH(app)” value in data set [9] was determined as 43 µL/min. The IC50 in data set [3] was > 30 µM; in data set [11], > 100 µM; in data set [5], > 30 µM. Also, the solubility kinetic in data set [10] amounted to 3000 µM (≈ 1170 µg/mL). In data set [13], this compound returned a logD of 3.3. Besides, the Ki in data set [16] was > 100 µM. Further, the Papp in data set [17] is 27 ×10⁻⁶ cm/s.

For `O=C(NC1CC1)c1cc(-c2cccc(O)c2)on1`, in data set [6], the IC50 turned out to be 28.9 µM.

Regarding `O=C(NC1CCC1)c1cc(-c2cccc(O)c2)on1`, the IC50 in data set [6] is 1.14 µM.

On to `O=C(NC1CCCC1)c1ccc2snnc2c1`, for which the IC50 in data set [6] came to 3 µM.

In the case of `CN(C(=O)c1cc(-c2cccc(O)c2)on1)C1CCCC1`, in data set [6], the IC50 is > 30 µM.

For orientation: IC50 means the concentration that inhibits the measured activity by half. As a reminder, the inhibition is how much of the control response was suppressed. What is called ΔTm is the change in melting temperature against a reference sample. In general, logD refers to lipophilicity at a set pH, counting ionised and neutral species. Read a high logD as a more lipophilic compound. The Ki is the dissociation constant of the complex between target and ligand, obtained from inhibition or displacement. By Papp is commonly meant a coefficient for how fast a substance crosses the barrier.
